Earlier results as cited in article PMC6278306, “Anti-Leishmanial and Cytotoxic Activities of a Series of Maleimides: Synthesis, Biological Evaluation and Structure-Activity Relationship” (Molecules, 2018).

Test system: 10 fungi
Set-up: method as in PMID 21481593
Conditions: against 10 fungi; cited from earlier work

Compound: O=C1C=CC(=O)N1CCCCc1ccccc1 [N-(4-phenylbutyl)-maleimide]
- MIC: 0.48 to 15.63 µg/mL

Compound: CCCCN1C(=O)C=CC1=O [N-butyl-maleimide]
- MIC: 0.48 to 15.63 µg/mL
